Assay results: PubChem BioAssay (NCI)
“And” between values parts separate entries of the source, which are not always exact repeats. Identical values can stand only once.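 96-well plates; 48 h exposure; 5 concentrations. Endpoints by linear interpolation between flanking doses. Not reached: highest tested concentration assigned. The concentration for 50% growth inhibition is given as GI50. TGI is the concentration that stops growth completely.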

What was measured:
Test in all cases: DTP human tumour cell line panel, 48 h
CCRF-CEM leukemia = system: CCRF-CEM leukemia
DU-145 prostate = system: DU-145 prostate
HOP-92 NSCLC = system: HOP-92 NSCLC
KM12 colon = system: KM12 colon
MALME-3M melanoma = system: MALME-3M melanoma
MOLT-4 leukemia = system: MOLT-4 leukemia
SK-MEL-28 melanoma = system: SK-MEL-28 melanoma
SK-OV-3 ovarian = system: SK-OV-3 ovarian
SW-620 colon = system: SW-620 colon
TK-10 renal = system: TK-10 renal

| SMILES | GI50 (CCRF-CEM leukemia) | TGI (CCRF-CEM leukemia) | GI50 (DU-145 prostate) | TGI (DU-145 prostate) | GI50 (HOP-92 NSCLC) | TGI (HOP-92 NSCLC) | GI50 (KM12 colon) | TGI (KM12 colon) | GI50 (MALME-3M melanoma) | TGI (MALME-3M melanoma) | GI50 (MOLT-4 leukemia) | TGI (MOLT-4 leukemia) | GI50 (SK-MEL-28 melanoma) | TGI (SK-MEL-28 melanoma) | GI50 (SK-OV-3 ovarian) | TGI (SK-OV-3 ovarian) | GI50 (SW-620 colon) | TGI (SW-620 colon) | GI50 (TK-10 renal) | TGI (TK-10 renal) |
| --- | --- | --- | --- | --- | --- | --- | --- | --- | --- | --- | --- | --- | --- | --- | --- | --- | --- | --- | --- | --- |
| C[C@@H]1CC[C@@H]2[C@@H]1[C@H](OC(=O)/C=C/C1CCCCC1)[C@]1(C3CCCCC3)C[C@@H](OC(=O)CO)[C@@]2(C)O1 | 16.4 µM | 34.7 µM | 14.3 µM | 27.3 µM | 7.14 µM | 19.6 µM | 14.8 µM | 31.1 µM | 14.5 µM | 28.9 µM | 13.7 µM | 31.3 µM | 15.1 µM | 29.6 µM | 15 µM | 27.7 µM | 15.5 µM | 29.8 µM | 15.8 µM | 29.5 µM |
| c1ccc2c(N=NSc3ncnc4nc[nH]c34)c3ccccc3nc2c1 | 1.31 µM | 6.66 µM | 1.4 µM | 6.63 µM | 1.79 µM | 4.77 µM | 1.61 µM | 10.7 µM | 2.01 µM | 4.11 µM | 0.454 µM | 4.83 µM | 1.78 µM | 3.71 µM | 1.38 µM | 14.2 µM | – | – | 1.77 µM | 6.37 µM |
| NC(=O)NNC/C(Cl)=C(\Cl)C(=O)O | – | > 100 µM | – | – | – | – | – | > 100 µM | – | > 100 µM | – | > 100 µM | – | > 100 µM | – | > 100 µM | – | > 100 µM | – | > 100 µM |
| N#C/C(=C\c1ccc[nH]1)c1cc(-c2ccc(Cl)cc2)nn1-c1ccccc1 | 3.59 µM | 22 µM | 3.81 µM | > 40.7 µM | 2.54 µM | 10.2 µM | 2.68 µM | 11.6 µM | 3.05 µM | 17.2 µM | 2.52 µM | 8.23 µM | 4.57 µM | 17.5 µM | 7.88 µM | 40.2 µM | 3.75 µM | > 41.8 µM | 3.12 µM | 21.1 µM |
| Nc1nc(N)c2c(ccc3c2ccn3Cc2cccc([N+](=O)[O-])c2)n1 | 0.0221 µM and 0.0126 µM | 2.03 µM and 1.07 µM | 0.151 µM and 0.086 µM | 2.08 µM and 2 µM | – | 3.05 µM and 1.05 µM | 0.0937 µM and 0.129 µM | 2.21 µM and 1.95 µM | 1.21 µM | 2.81 µM | 0.0704 µM and 0.0621 µM | 2.49 µM | 1.04 µM and 1.02 µM | 2.36 µM and 2.2 µM | 0.0888 µM and 0.54 µM | 2.01 µM and 2.11 µM | 0.00556 µM | 1.73 µM and 1.64 µM | 1.14 µM | 2.67 µM |
| O=C(Nc1ccc(Cl)c(Cl)c1)c1ccc(NC2=C(Cl)C(=O)N(Cc3ccccc3)C2=O)cc1 | 2.3 µM | 7.79 µM | 4.32 µM | 16.6 µM | – | – | 11.5 µM | 27.2 µM | 11.2 µM | 24.8 µM | 2.18 µM | 5.02 µM | 21.2 µM | 63.5 µM | 21.5 µM | 44 µM | – | – | 18.8 µM | 39.2 µM |
| O=C1C2=C(C(=O)c3ccccc31)C(O)(S(=O)(=O)O)C(O)(S(=O)(=O)O)C1N=CC=CC21 (stereo unspecified) | 6.47 µM | > 100 µM | 6.09 µM and 5.9 µM | 44 µM and 22.2 µM | 2.96 µM and 1.85 µM | 26.9 µM and 6.81 µM | 4.33 µM and 4.8 µM | 67.4 µM and 20 µM | 10.3 µM and 14.8 µM | 36.7 µM and 39 µM | 7.06 µM and 4.38 µM | > 100 µM and 34.4 µM | 17 µM and 12.1 µM | 96.1 µM and 28.6 µM | 4.61 µM and 8.35 µM | 38.3 µM and 32.4 µM | 3.65 µM and 4.29 µM | 96.9 µM and 17.2 µM | 6.25 µM and 9.35 µM | 68.3 µM and 28.8 µM |
| COC(=O)[C@]1(C)CCC[C@@]2(C)C3=C(CC[C@H]12)C[C@@H](CC(OC(C)=O)OC(C)=O)[C@@H](C)C3 | – | – | 10.4 µM | 23.3 µM | 9.95 µM | 19.9 µM | 10.1 µM | 22.6 µM | – | – | 18.5 µM | > 50 µM | 11.5 µM | 24.5 µM | 20.7 µM | > 50 µM | 11 µM | 22.7 µM | 13.5 µM | 27.2 µM |
| O=C1/C=C/[C@@H](O)[C@@H]2C[C@@H](O)C[C@H]2/C=C/CCC[C@H](CCO)O1 | 0.362 µM | > 100 µM | 0.426 µM | > 100 µM | 0.233 µM | 0.93 µM | 0.0584 µM | 0.268 µM | 0.0951 µM | 0.529 µM | 0.358 µM | – | 0.0466 µM | 0.56 µM | 0.287 µM | > 100 µM | 0.216 µM | 0.646 µM | 0.245 µM | 0.832 µM |
| O=C(Nc1nc2c(C(F)(F)F)cccc2s1)c1cc(Cl)ccc1O | 0.328 µM | 12.5 µM | 0.466 µM | > 100 µM | 0.188 µM | 0.705 µM | 0.363 µM | 11.8 µM | 0.231 µM | 0.641 µM | 0.318 µM | 1.21 µM | 0.331 µM | 8.18 µM | 0.236 µM | 0.797 µM | 0.364 µM | 16.3 µM | 0.365 µM | 10.7 µM |
| CN1C(=O)N(C)C2C1NC(=S)N2/N=C/C=C/c1ccccc1[N+](=O)[O-] (stereo unspecified) | 0.822 µM | > 100 µM | 3.81 µM | > 100 µM | 57.7 µM | > 100 µM | 0.774 µM | > 100 µM | > 100 µM | > 100 µM | 0.992 µM | > 100 µM | 3.7 µM | > 100 µM | 1.18 µM | > 100 µM | 0.596 µM | > 100 µM | – | – |
| CC(=O)C1=C(C)N(Cc2ccccc2)C2(O)C=CC(=O)C3=C(O)c4ccccc4C(=O)C312 (stereo unspecified) | – | – | 4.57 µM | 19.7 µM | 3.73 µM | 7.77 µM | 9.05 µM | 26 µM | 1.44 µM | 2.97 µM | 3.34 µM | > 100 µM | 2.36 µM | 6.1 µM | 18.3 µM | 42.4 µM | 2.24 µM | 5.22 µM | 2.82 µM | 6.18 µM |
| CCO/C=C\C12CCCC1NC(c1ccccc1)(c1ccccc1)O2 (stereo unspecified) | – | 51 µM | – | – | – | 52.3 µM | – | > 100 µM | – | 54.3 µM | – | 46 µM | – | > 100 µM | – | > 100 µM | – | > 100 µM | – | > 100 µM |
